Measured values published in publication PMC10520499, “Next step in the development of mesoprogestins: the preclinical profile of EC313” (Frontiers in Endocrinology, 2023).

Assays:
PR-B – NCoR = molecular target: T1, PR-B – NCoR (Homo sapiens, UniProt P06401); assay: PR-B – NCoR interaction, two-hybrid system; format: cell-based
T1 construct: expressed in transfected cells
From the text: The active recruitment of the nuclear corepressor NCoR results in transcriptional inactivity of the PR. So, the potency of PR ligands to induce the interaction of PR with NCoR provides information on the antagonistic potency of the ligand. Therefore, the capacity of EC313 to induce the interaction of PR-B with the corepressor NCoR in comparison with reference ligands was studied. All test compounds except the receptor agonist Promegestone induced PR to interact with NCoR.
Figure 11 (A) PR-B interaction with NCoR using a two-hybrid assay. Dose response curve. […] (B) Liganded PR-Binteraction with c-SRC kinase. The data presented are from five independent experiments. Signals are represented as mean luminescence ± SD normalized to maximal promegestone activity equal to 100%.

T47D cells = assay: Proliferation / arrest in Go/G1 in T47D cells; format: cell-based, human; set-up: key to Arrest in Go/G1: ↓/↑ - decreased/increased action of tested compounds.; ↓/↑ - decreased/increased action of tested compounds; conditions: Proliferation; T47D cells; statistical significance not always reached
cycling guinea pigs = assay: Ovulation inhibition in cycling guinea pigs; format: in vivo, guinea pig; conditions: cycle days 10-17
Protocol: Test compounds were administered once daily from cycle days 10-17 by s. c. injection using 0.2 mL vehicle (benzyl-benzoate/castor oil, ratio 1 + 4 v/v). The time of autopsy (day 18) was 24-48h after the expected ovulation at the end of the treatment cycle. This design permits the study of the effects of the tested compounds on the expected ovulation. Fresh CL were evidence of a recent ovulation.

[1] = test system: estrogen-primed endometrium of immature rabbits; assay: McPhail assay, estrogen-primed rabbit endometrium; format: in vivo; conditions: for Score 2 for PR-agonistic activity / Score 2 for PR-antagonistic activity: dose giving McPhail score 2; for Score 2 for PR-antagonistic activity: concomitant progesterone (1 g/animal/day [sic] s.c.)
Protocol: The secretory transformation of estrogen-primed endometrium of immature rabbits indicates the strength of the progestagenic action on the endometrium of the chosen test compound. The simultaneous administration of test compounds with progesterone can indicate potential anti-progestagenic actions.
Female rabbits received daily s.c. injections of 5.0 µg 17β-Estradiol/per animal for 6 days leading to the proliferation of the endometrium. From day 7 to day 13 the animals received doses of vehicle, EC313 (1 to 30 mg/animal/day s.c) or progesterone. On day 14, the animals were sacrificed and the uteri were processed for histological evaluation and the secretory endometrial transformation was rated according to a modified McPhail score (1 – 4).
The rating scale ranges from 1 (no or very low secretory, transformation, or agonistic activity) to 4 (highest secretory, transformation, or agonistic activity). The McPhail score of 2 (median) was selected for the comparison. The antagonistic activity was measured by the concomitant administration of progesterone ([…] s.c.).

GR = molecular target: T2, GR (Homo sapiens, UniProt P04150); assay: GR transactivation (HELA, MMTV-LUC); format: cell-based; set-up: HELA cells line carrying endogenous glucocorticoid protein; endogenous in cells; host or cells: HELA, stably transfected with the reporter only; conditions: comparative transactivation profile; read-out: Potency, GR Antagonism
T2 sequence (P04150 1-777): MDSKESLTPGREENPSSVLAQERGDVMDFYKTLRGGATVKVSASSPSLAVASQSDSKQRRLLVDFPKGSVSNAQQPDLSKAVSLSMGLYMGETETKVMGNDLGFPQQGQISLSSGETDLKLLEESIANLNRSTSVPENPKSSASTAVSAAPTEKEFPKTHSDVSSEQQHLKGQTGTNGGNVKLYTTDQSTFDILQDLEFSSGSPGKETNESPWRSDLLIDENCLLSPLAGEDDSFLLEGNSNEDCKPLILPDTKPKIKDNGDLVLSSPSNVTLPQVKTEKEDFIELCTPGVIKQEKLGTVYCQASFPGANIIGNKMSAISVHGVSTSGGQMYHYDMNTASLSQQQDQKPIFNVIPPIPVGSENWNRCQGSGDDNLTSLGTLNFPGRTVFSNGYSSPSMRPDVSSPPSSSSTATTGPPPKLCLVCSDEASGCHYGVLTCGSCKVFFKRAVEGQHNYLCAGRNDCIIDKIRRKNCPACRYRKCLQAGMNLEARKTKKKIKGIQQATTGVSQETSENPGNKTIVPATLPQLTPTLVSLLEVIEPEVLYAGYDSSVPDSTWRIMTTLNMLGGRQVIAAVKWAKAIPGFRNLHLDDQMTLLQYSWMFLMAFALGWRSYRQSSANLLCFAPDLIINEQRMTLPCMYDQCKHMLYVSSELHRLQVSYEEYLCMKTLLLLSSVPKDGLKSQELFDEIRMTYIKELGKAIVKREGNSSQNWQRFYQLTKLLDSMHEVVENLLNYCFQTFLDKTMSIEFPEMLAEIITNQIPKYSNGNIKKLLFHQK
Protocol: HELA cells line carrying endogenous glucocorticoid protein were cultured in order to study gene expression on the transcriptional level under the influence of the tested compounds. The cells were transfected with reporter vector MMTV/LUC. To produce high protein overexpression, stable transfection was carried out. […] Agonist and antagonist properties of EC313 toward tested receptor GR were analyzed using luminescence detection.
In order to develop the transfection assay, plasmids were generated and isolated. Vector pGL4.36 coding the glucocorticoid receptor responsive element MMTV and firefly luciferase reporter vector [luc2P/Hygro] were used as a reporter system (pGL4.36-MMTV/LUC). The cells were transfected with reporter vector MMTV/LUC.
stable transfection with reporter vector was performed on a 6-well plate (0.5x10^6 cells per well) in culture medium (EMEM, 10% FBS, NEAA, sodium […], L-glutamine). Briefly, according to the transfection procedure, cells were passaged, and they grew in a culture medium containing an appropriate concentration of the antibiotic (Hygromycin 150 µg/mL). Resistance to Hygromycin gene, which had been transfected together with the reporter vector to the cells, only allowed positively transfected cells to grow in this medium. Therefore, growing cell clones were selected for further steps as stable transfectants.
After 24h incubation of cells with the tested compounds, luciferase activity was measured using VICTOR™ X Multilabel Plate Reader -Perkin Elmer.

Cyclin D1 promotor = assay: Activation of Cyclin D1 promotor; format: cell-based, human; conditions: Other signal cascades

T1 sequence (P06401 whole entry): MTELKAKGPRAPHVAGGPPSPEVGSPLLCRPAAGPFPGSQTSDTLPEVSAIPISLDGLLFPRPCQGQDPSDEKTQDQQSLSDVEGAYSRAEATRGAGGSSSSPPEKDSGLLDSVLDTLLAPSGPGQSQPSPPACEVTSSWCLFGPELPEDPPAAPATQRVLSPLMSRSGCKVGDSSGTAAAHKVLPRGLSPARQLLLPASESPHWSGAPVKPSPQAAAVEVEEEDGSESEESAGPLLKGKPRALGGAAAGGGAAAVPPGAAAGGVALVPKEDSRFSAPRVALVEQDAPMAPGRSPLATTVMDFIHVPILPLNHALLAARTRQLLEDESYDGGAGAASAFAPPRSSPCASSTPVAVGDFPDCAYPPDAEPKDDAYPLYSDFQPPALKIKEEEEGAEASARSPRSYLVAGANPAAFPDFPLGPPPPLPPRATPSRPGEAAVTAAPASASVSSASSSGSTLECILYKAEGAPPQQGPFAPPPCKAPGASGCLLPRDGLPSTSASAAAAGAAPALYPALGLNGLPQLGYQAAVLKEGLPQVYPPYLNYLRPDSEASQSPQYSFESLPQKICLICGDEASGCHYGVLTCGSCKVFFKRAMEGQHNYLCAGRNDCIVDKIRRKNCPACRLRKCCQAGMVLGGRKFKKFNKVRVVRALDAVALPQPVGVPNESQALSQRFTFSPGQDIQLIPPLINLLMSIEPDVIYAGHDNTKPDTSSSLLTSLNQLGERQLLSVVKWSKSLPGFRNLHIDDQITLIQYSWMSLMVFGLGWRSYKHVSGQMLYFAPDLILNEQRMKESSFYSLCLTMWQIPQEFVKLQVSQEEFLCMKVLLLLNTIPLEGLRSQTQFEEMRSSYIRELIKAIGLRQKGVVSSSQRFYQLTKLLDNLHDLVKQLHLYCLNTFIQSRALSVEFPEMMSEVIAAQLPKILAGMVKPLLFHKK
T1 sequence (O75376 whole entry partner): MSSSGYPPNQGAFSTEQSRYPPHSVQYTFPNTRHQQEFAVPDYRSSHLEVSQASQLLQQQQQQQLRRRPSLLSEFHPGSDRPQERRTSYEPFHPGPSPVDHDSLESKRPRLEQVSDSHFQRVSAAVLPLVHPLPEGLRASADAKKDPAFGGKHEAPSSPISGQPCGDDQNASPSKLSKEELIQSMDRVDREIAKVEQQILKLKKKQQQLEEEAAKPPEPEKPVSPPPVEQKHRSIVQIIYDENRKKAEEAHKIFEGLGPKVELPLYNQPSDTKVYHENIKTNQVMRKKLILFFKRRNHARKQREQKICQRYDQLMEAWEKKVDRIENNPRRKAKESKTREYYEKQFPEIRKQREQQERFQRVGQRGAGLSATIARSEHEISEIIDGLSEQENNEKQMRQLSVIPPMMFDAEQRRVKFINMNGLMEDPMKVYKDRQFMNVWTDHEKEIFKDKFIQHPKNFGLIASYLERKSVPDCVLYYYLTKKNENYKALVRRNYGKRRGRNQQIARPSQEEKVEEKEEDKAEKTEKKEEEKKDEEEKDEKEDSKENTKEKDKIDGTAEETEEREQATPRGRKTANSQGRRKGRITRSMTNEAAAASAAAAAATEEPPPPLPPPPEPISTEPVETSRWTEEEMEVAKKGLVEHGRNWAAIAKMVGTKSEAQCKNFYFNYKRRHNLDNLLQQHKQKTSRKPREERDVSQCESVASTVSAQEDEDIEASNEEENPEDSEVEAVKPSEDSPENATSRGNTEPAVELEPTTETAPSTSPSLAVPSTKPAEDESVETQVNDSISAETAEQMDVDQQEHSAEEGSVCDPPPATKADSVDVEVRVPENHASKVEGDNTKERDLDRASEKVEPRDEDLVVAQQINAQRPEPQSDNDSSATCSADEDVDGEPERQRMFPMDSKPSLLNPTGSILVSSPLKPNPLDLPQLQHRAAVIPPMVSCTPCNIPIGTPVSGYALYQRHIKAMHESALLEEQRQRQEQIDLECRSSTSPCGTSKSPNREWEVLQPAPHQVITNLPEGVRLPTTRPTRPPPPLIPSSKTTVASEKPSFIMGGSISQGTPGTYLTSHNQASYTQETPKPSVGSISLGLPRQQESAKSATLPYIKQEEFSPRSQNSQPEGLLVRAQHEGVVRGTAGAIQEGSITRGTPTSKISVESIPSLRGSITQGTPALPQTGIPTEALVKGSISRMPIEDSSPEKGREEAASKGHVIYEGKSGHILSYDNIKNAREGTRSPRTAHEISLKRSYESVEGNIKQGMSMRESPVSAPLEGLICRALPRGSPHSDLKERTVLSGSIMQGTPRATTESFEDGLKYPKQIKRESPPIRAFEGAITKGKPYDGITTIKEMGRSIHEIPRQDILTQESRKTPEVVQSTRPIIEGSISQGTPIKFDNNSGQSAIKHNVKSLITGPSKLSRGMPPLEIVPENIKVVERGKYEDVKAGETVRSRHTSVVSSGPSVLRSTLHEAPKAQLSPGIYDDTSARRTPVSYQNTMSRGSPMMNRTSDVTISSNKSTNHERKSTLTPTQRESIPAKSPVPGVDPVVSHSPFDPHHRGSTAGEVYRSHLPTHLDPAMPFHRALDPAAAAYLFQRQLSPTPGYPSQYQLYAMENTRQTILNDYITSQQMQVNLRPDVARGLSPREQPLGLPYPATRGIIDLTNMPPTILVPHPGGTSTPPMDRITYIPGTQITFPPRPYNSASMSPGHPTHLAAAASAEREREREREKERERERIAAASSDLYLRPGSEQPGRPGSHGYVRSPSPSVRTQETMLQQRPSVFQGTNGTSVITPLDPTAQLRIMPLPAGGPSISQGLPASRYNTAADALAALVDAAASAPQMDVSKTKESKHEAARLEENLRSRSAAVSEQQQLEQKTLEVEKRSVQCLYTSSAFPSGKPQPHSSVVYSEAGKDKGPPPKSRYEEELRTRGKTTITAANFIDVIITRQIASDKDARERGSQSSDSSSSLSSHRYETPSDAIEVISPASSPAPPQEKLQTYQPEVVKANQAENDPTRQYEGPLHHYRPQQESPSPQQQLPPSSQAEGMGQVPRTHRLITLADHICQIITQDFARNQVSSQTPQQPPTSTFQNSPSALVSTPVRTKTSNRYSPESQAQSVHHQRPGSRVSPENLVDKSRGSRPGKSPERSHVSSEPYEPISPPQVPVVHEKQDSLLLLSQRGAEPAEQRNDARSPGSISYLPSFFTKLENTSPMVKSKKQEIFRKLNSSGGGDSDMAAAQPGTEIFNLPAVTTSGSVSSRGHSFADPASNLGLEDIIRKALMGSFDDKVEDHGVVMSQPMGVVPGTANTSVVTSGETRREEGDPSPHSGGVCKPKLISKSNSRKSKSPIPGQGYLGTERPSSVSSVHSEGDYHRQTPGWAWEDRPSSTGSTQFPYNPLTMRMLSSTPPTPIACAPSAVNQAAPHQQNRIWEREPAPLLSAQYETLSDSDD

With CCC(=O)[C@@]1(C)CC[C@H]2[C@@H]3CCC4=CC(=O)CCC4=C3CC[C@@]21C [Promegestone, reference compound] as the molecule, how does the “induction of PR interaction with NCoR” value (PR-B – NCoR) read?
Its value is “does not induce NCoR interaction”.

And the “Arrest in Go/G1” value (T47D cells)?
The value was “↓”.

For CC#C[C@]1(O)CC[C@H]2[C@@H]3CCC4=CC(=O)CCC4=C3[C@@H](c3ccc(N(C)C)cc3)C[C@@]21C [Mifepristone, reference compound], which “Arrest in Go/G1” value (T47D cells) is on record?
The value was “↑”.

What about the “Number of ovulations vs. number of inseminated females” value (cycling guinea pigs; 1.0 mg/animal/day s.c.) of the same molecule?
Its value is 4/5.

What about the “Number of ovulations vs. number of inseminated females” value (cycling guinea pigs; 3.0 mg/animal/day s.c.) of the same molecule?
Its value is 2/5.

What about the “Number of ovulations vs. number of inseminated females” value (cycling guinea pigs; 10.0 mg/animal/day s.c.) of the same molecule?
The value was 0/3.

Which results are given for CC(=O)[C@H]1CC[C@H]2[C@@H]3CCC4=CC(=O)CC[C@]4(C)[C@H]3CC[C@]12C [Progesterone]?
Score 2 for PR-agonistic activity [1]: ~ 0.1 mg/animal/day s.c.; Score 2 for PR-antagonistic activity [1]: n.a. “pure” agonist

Which results are given for C[C@]12C[C@H](c3ccc(S(C)(=O)=O)cc3)C3=C4CCC(=O)C=C4CC[C@H]3[C@@H]1CC[C@@]2(O)C(F)(F)C(F)(F)F [Vilaprisan, reference compound]?
Number of ovulations vs. number of inseminated females (cycling guinea pigs; 3.0 mg/animal/day s.c.): 0/5; Number of ovulations vs. number of inseminated females (cycling guinea pigs; 10.0 mg/animal/day s.c.): 0/4; Score 2 for PR-agonistic activity [1]: n.a.;”pure” antagonist; Score 2 for PR-antagonistic activity [1]: < 0.3 mg/animal/day s.c.; IC50 (GR): 629 nM

For COC[C@]1(OC)CC[C@H]2[C@@H]3CCC4=CC(=O)CCC4=C3[C@@H](c3ccc(/C=N/O)cc3)C[C@@]21C [Asoprisnil, reference compound], which “efficacy relative to Ulipristal acetate, NCoR interaction” value (PR-B – NCoR) is on record?
The value was 56%.

What about the “induction of PR interaction with NCoR” value (PR-B – NCoR) of the same molecule?
Its value is “limited ability to induce progesterone receptor interaction with NCoR”.

And the “Arrest in Go/G1” value (T47D cells)?
Its value is “↑”.

What about the “Quotient between antagonistic and agonistic action” value ([1]; McPhail score 2 doses) of the same molecule?
Its value is ~ 1.5.

And the “Score 2 for PR-agonistic activity” value [1]?
The value was ~ 0.2 mg/animal/day s.c.

And the “Score 2 for PR-antagonistic activity” value [1]?
Its value is ~ 0.3 mg/animal/day s.c.

What about the IC50 (GR) of the same molecule?
Its IC50 is 1230 nM.

How did the “Number of ovulations vs. number of inseminated females” value (cycling guinea pigs; 10.0 mg/animal/day s.c.) turn out when “Telapristone acetate [CDB 4124 Telapristone acetate, reference compound]” was run?
Its value is 1/3.

C[C@]12C[C@H](c3ccc(-n4ccnc4)cc3)C3=C4CCC(=O)C=C4CCC3C1CC[C@@]2(O)C(F)(F)C(F)(F)F (stereo partly shown) [EC317] was tested. Which “Activation of Cyclin D1 promotor” value (Cyclin D1 promotor) did it give?
The value was “unclear*”.

What about the “Arrest in Go/G1” value (T47D cells) of the same molecule?
The value was “↑”.

What about the “Number of ovulations vs. number of inseminated females” value (cycling guinea pigs; 0.1 mg/animal/day s.c.) of the same molecule?
Its value is 2/3.

What about the “Number of ovulations vs. number of inseminated females” value (cycling guinea pigs; 0.3 mg/animal/day s.c.) of the same molecule?
The value was 3/3.

And the “Number of ovulations vs. number of inseminated females” value (cycling guinea pigs; 1.0 mg/animal/day s.c.)?
Its value is 0/3.

What about the “Number of ovulations vs. number of inseminated females” value (cycling guinea pigs; 3.0 mg/animal/day s.c.) of the same molecule?
Its value is 0/6.

And the “Number of ovulations vs. number of inseminated females” value (cycling guinea pigs; 10.0 mg/animal/day s.c.)?
Its value is 0/6.
